Earlier results on one molecule are cited in US9987253B2, “Cannabinoid receptor antagonists/inverse agonists useful for treating metabolic disorders, including obesity and diabetes” (Jenrin Discovery, priority 2012, dated 2018).

For this data set the following is noted: type 2 diabetes patients not treated with other anti-diabetic medications, six months, baseline 7.9.

As for `Cc1c(C(=O)NN2CCCCC2)nn(-c2ccc(Cl)cc2Cl)c1-c1ccc(Cl)cc1` [rimonabant], the HbA1c levels lowered is given as 0.8%.
